Test [1] deals with T1, Beta-adrenergic receptor kinase 1 (Homo sapiens) (UniProt P25098).
T1 sequence (whole entry): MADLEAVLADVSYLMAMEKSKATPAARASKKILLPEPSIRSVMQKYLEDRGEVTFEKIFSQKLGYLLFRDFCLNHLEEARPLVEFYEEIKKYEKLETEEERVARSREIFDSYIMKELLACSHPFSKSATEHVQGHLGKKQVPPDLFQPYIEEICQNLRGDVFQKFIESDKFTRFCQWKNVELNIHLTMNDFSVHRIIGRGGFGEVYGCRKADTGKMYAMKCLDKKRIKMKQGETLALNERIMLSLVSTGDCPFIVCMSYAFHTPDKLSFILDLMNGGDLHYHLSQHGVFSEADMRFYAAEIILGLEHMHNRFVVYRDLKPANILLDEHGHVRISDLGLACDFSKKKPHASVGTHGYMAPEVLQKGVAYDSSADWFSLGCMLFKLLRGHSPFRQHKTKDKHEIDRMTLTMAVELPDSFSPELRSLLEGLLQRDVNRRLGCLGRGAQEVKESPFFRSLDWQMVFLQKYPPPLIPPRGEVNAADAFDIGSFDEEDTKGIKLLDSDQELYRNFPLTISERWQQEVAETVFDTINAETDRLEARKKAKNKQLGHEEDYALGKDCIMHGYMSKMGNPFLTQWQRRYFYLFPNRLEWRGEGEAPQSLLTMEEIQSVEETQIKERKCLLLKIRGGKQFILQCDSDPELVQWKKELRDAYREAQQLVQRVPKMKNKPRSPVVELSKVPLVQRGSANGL
The test is described as follows: Selectivity interaction (KinomeScan (DiscoverX)) EUB0001079a ADRBK1. The following applies: at 1 µM.

Test [2] has as its target Mitogen-activated protein kinase 1 (Homo sapiens, UniProt P28482). The test is described as follows: Selectivity interaction (KinomeScan (DiscoverX)) EUB0001079a MAPK1. The note with it: at 1 µM.
The target of test [3] is T2, Cyclin-dependent kinase 11A (Homo sapiens) (UniProt Q9UQ88).
T2 sequence (whole entry): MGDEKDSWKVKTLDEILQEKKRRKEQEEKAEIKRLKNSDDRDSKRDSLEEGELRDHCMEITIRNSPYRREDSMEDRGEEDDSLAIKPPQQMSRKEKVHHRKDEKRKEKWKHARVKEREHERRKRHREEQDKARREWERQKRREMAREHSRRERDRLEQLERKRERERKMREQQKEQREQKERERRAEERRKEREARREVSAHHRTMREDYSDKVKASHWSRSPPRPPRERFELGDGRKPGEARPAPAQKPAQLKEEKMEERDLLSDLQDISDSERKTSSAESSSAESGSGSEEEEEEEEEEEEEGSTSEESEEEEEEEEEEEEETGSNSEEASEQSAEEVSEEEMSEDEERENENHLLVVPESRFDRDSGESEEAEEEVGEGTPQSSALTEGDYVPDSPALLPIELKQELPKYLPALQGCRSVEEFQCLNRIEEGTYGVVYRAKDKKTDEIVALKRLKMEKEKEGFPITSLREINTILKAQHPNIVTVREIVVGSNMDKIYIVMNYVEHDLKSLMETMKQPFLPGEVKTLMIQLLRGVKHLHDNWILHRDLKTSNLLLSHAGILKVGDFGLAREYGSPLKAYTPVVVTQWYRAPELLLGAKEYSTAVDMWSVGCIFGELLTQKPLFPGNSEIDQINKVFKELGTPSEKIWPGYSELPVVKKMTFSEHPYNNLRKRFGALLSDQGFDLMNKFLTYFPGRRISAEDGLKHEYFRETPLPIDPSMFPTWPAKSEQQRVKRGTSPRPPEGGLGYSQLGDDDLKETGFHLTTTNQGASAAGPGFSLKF
The test is described as follows: Selectivity interaction (KinomeScan (DiscoverX)) EUB0000655a CDK11A. The note with it: at 10 µM.

In test [4] the target is T3, Dual specificity mitogen-activated protein kinase kinase 4 (Homo sapiens) (UniProt P45985).
T3 sequence (whole entry): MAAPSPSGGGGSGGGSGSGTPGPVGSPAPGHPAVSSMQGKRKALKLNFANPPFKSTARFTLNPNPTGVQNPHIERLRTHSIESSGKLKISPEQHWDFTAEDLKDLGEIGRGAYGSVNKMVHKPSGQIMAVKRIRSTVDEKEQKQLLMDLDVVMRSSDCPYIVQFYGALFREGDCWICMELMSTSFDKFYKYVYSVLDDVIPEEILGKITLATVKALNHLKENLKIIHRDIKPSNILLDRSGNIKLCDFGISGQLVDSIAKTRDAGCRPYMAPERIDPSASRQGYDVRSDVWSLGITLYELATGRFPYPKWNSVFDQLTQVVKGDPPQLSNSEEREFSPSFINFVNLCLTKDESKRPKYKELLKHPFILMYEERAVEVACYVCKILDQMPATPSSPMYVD
The test is described as follows: Selectivity interaction (Kinase screening (Upstate/Millipore)) EUB0000604a MAP2K4.

Test [5] addresses Tyrosine-protein kinase JAK2 (Homo sapiens, UniProt O60674). The test is described as follows: Selectivity interaction (SelectScreen profiling (Invitrogen)) EUB0000607a JAK2. The note with it: at 2 µM.
For test [6], the target named is T4, Mitogen-activated protein kinase kinase kinase 3 (Homo sapiens) (UniProt Q99759).
T4 sequence (whole entry): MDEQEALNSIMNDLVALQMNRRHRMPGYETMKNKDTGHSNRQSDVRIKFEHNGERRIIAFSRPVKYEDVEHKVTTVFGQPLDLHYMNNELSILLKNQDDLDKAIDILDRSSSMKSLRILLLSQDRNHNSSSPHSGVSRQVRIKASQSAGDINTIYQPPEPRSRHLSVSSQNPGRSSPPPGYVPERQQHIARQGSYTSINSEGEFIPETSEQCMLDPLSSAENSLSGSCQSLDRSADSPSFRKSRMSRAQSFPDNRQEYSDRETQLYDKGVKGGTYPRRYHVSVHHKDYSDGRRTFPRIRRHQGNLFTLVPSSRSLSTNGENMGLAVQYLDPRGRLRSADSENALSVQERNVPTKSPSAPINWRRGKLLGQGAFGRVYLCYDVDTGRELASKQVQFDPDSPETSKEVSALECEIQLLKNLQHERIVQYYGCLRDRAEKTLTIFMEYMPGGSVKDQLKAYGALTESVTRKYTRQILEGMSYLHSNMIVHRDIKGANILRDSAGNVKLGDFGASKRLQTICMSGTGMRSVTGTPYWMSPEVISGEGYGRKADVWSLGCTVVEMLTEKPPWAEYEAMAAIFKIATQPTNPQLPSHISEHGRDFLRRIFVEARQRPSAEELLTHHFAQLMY
The test is described as follows: Selectivity interaction (KinomeScan (DiscoverX)) EUB0000607a MAP3K3. The following applies: at 10 µM.

Structures are written as SMILES.

The source of these data is ChEMBL document CHEMBL5465560, “Selectivity Literature for EUbOPEN Chemogenomic Library” (2024).

Sequence of Tyrosine-protein kinase JAK2 (O60674 whole entry): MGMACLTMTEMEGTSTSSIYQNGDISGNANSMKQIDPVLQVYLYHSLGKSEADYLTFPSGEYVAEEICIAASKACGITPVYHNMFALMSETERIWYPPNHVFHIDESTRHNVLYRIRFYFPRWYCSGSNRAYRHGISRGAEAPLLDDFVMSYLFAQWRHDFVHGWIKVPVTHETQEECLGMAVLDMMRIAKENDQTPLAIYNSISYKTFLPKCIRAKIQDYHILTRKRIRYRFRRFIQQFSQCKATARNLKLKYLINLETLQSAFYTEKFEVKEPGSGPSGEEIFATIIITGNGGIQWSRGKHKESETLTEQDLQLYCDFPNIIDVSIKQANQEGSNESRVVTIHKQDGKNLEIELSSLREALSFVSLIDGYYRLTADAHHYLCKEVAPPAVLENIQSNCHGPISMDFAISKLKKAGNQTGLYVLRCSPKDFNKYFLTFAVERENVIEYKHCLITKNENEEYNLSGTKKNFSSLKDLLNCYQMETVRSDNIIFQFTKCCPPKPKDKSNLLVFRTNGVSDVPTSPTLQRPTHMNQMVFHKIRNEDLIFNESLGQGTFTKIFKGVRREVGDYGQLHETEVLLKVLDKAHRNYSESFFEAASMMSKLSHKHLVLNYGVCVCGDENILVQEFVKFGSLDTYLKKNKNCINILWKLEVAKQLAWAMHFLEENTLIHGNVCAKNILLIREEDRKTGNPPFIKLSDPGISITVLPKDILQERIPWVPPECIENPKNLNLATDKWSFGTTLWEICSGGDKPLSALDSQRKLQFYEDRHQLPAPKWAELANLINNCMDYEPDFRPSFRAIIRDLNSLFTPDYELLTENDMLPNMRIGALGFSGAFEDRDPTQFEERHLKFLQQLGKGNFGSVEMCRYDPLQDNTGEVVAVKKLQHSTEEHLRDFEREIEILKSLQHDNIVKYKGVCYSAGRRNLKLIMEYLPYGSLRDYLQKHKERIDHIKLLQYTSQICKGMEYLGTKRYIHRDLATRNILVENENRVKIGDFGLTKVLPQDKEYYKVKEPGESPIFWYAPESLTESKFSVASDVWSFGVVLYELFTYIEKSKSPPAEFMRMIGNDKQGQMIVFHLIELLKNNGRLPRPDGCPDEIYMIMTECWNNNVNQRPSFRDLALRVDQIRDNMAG
Sequence of Mitogen-activated protein kinase 1 (P28482 whole entry): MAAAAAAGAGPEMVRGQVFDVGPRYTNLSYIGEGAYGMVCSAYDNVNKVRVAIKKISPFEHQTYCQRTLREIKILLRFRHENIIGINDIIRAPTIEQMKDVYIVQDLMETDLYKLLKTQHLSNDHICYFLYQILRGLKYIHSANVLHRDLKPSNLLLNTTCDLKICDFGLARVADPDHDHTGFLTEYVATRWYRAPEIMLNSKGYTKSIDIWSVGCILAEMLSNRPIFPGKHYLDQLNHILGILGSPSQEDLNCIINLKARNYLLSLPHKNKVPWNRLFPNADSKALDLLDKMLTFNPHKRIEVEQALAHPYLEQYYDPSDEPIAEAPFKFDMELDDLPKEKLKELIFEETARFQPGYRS

Regarding `Nc1cnc(N2CCc3cc(S(=O)(=O)Nc4c(F)cc(Cl)cc4F)cc(N4CCCC4=O)c32)nc1` [TP-020n], the % of control in test [1] and in test [2] was 100% each time.
Take `CN(C)CCOc1ccc(-c2nc(-c3ccncc3)c(-c3ccc4c(c3)CC/C4=N\O)[nH]2)cc1`: the % of control in test [3] stood at 86%.
With `Cc1cnc(Nc2ccc(F)cc2Cl)nc1-c1c[nH]c(C(=O)N[C@H](CO)c2cccc(Cl)c2)c1`, the % of inhibition in test [4] came out at 69%.
On to `CNC(=O)Nc1ccc(-c2nc(N3CC4CCC(C3)O4)c3cnn(C4CCC5(CC4)OCCO5)c3n2)cc1`, for which the % of inhibition in test [5] was found to be 2%. Also, the % of control in test [6] was found to be 100%.
